# Test results as given in paper PMC10303271, “Synthesis and Receptor Binding Studies of α5 GABAAR Selective Novel Imidazodiazepines Targeted for Psychiatric and Cognitive Disorders” (Molecules, 2023).
# Assays:
# Ca channel human = assay: PDSP primary binding Ca channel; settings: primary binding, 10,000 nM; last figure of the line = mean of the 4 before it
# Procedure: (§1) To determine if any off-target receptor-binding effects are present, all the novel ligands were sent to the National Institute of Mental Health (NIMH), Psychoactive Drug Screening Program (PDSP). The ligands were screened over a panel of 47 receptors, ion channels, and transporters to determine any other possible interactions with […]. The hERG-binding was also determined. […] No binding of the test compounds to calcium channels was observed. […] It is necessary to screen the compounds for hERG-binding during the early process of drug discovery. The unintentional binding of many drugs to hERG can cause blockade of hERG K+ channels in the heart, which can cause many side effects including cardiac arrhythmias and sudden death. […] All of the α5 imidazodiazepines were tested for hERG-binding.
# (§2) The NIMH PDSP assay protocol book [https://kidbdev.med.unc.edu/databases/PDSP%20Protocols%20II%202013-03-28.pdf accessed on 23 April 2023]. describes the protocols for primary and secondary radio-ligand binding assays. These assays were carried out in a final volume of 125 µL per well in the appropriate binding buffer.
# (§3) The binding of a ligand to a receptor, ion channel, or transporter was determined in the […] of 10 µM of the appropriate reference compound. […] Plates were incubated in the dark for 90 min at rt, and the reactions were stopped by vacuum filtration onto 0.3% polyethyleneimine (PEI) soaked 96-well filter mats using a 96-well Filtermateharvester. This was followed by three washes with cold PBS buffer. Radioactivity was then counted on a Microbeta counter. Nonlinear regression was used to analyze the data with N = 6 replicates.
# 5-HT3 = molecular target: T1, 5-HT3 (Homo sapiens, UniProt P46098); assay: PDSP primary binding 5-HT3; settings: 1.5 h; primary binding, 10,000 nM; last figure of the line = mean of the 4 before it; read-out: 5-HT3, PDSP raw data, mean
# T1 construct: purchased NIMH Psychoactive Drug Screening Program (PDSP)
# T1 sequence (P46098 24-478): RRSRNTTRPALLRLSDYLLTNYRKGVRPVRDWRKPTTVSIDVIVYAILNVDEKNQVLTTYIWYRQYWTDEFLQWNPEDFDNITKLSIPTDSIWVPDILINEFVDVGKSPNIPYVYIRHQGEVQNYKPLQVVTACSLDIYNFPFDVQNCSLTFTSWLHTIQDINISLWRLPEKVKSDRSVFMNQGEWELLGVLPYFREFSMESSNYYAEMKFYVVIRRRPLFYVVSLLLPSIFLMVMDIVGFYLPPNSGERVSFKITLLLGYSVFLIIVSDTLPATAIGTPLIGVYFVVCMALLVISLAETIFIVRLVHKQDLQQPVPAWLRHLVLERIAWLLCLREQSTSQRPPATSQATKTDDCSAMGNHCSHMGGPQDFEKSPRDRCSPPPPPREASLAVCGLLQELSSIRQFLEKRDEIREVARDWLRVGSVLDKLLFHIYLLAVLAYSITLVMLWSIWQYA
# Procedure: as §1, §2, §3
# Alpha1B = molecular target: T2, Alpha1B (Homo sapiens, UniProt P35368); assay: PDSP primary binding Alpha1B; settings: 1.5 h; primary binding, 10,000 nM; last figure of the line = mean of the 4 before it; read-out: Alpha1B, PDSP raw data, mean
# T2 construct: purchased NIMH Psychoactive Drug Screening Program (PDSP)
# T2 sequence (P35368 1-520): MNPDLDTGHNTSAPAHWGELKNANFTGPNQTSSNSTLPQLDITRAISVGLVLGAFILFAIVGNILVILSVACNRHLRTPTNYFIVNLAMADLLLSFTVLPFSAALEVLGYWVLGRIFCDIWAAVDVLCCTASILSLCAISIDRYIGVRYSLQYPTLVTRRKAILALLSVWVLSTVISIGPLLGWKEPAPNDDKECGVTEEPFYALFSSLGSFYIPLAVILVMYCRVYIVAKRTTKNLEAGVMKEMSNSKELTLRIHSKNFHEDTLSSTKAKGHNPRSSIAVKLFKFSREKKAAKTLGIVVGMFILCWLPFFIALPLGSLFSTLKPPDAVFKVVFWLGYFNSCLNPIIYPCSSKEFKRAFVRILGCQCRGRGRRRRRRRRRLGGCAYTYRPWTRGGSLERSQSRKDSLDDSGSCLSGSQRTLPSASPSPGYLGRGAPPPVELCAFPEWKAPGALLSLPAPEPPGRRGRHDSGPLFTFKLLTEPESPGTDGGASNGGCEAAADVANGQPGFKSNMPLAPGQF
# Procedure: as §1, §2, §3
# M5 = molecular target: T3, M5 (Homo sapiens, UniProt P08912); assay: PDSP primary binding M5; settings: primary binding, 10,000 nM; last figure of the line = mean of the 4 before it; read-out: M5, PDSP raw data, mean
# T3 construct: purchased NIMH Psychoactive Drug Screening Program (PDSP)
# T3 sequence (P08912 1-532): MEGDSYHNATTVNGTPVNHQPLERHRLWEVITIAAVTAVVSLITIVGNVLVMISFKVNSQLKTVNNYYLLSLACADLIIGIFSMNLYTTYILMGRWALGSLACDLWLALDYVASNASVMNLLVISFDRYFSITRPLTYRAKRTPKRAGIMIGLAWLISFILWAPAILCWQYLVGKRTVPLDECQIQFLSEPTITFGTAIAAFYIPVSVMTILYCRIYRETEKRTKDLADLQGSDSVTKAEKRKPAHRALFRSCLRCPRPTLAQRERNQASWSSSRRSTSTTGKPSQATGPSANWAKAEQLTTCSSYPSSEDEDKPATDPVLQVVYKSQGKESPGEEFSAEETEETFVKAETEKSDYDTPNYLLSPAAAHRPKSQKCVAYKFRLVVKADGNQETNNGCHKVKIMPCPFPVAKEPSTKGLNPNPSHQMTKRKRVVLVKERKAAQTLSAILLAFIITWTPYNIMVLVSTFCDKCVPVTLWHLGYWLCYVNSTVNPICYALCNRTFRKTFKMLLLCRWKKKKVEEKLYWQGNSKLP
# Procedure: as §1, §2, §3
# Sigma 1 = assay: PDSP primary binding Sigma 1; settings: primary binding, 10,000 nM; last figure of the line = mean of the 4 before it
# Procedure: as §1, §2, §3
# HCA2 = molecular target: T4, HCA2 (Homo sapiens, UniProt Q8TDS4); assay: PDSP primary binding HCA2; settings: primary binding, 10,000 nM; last figure of the line = mean of the 4 before it; read-out: HCA2, PDSP raw data, mean
# T4 construct: purchased NIMH Psychoactive Drug Screening Program (PDSP)
# T4 sequence (Q8TDS4 whole entry): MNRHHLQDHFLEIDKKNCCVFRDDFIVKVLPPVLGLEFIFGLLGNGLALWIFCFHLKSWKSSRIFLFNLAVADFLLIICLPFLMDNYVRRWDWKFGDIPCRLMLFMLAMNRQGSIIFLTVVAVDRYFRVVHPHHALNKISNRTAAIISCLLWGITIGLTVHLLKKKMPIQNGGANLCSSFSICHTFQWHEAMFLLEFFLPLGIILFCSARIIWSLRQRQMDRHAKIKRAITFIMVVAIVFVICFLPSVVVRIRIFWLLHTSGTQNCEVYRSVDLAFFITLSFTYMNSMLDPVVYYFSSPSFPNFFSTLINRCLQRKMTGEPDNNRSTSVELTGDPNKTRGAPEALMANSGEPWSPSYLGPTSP
# Procedure: as §1, §2, §3
# Alpha3Beta2 = molecular target: T5, Alpha3Beta2 (Rattus norvegicus, UniProt P04757+P12390); assay: PDSP primary binding Alpha3Beta2; settings: primary binding, 10,000 nM; last figure of the line = mean of the 4 before it; read-out: Alpha3Beta2, PDSP raw data, mean
# T5 construct: purchased NIMH Psychoactive Drug Screening Program (PDSP)
# T5 sequence (P04757 26-499): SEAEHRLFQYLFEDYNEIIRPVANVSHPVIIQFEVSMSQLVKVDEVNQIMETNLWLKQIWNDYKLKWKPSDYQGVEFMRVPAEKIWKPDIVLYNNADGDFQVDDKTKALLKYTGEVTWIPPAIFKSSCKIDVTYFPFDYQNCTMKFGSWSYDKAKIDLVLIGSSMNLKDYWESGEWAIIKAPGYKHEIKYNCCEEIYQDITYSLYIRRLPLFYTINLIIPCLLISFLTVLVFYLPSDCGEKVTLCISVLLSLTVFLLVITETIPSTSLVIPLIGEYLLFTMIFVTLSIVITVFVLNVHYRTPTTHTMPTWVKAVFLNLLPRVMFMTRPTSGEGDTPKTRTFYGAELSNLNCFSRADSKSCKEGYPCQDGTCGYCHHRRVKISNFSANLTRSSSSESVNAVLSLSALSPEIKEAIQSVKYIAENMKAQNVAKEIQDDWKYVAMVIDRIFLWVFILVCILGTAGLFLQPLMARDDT
# T5 sequence (P12390 25-500): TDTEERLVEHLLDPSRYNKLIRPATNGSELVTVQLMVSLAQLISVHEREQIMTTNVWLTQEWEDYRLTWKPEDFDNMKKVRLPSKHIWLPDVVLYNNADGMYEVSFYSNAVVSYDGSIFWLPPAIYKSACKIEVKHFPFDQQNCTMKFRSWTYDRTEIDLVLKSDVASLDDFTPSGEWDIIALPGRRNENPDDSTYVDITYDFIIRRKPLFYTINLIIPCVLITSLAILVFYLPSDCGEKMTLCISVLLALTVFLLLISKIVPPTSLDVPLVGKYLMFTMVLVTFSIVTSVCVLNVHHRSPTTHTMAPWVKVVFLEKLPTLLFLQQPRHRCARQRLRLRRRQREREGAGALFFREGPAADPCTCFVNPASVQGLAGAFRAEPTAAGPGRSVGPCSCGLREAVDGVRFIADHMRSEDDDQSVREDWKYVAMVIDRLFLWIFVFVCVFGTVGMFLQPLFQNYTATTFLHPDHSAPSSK
# Procedure: as §1, §2, §3
structure (smiles),measurement,setting,value
"C#Cc1ccc2c(c1)C(c1ccccn1)=N[C@@H](C)c1c(C(=O)N(C)C)ncn1-2 [Compound 31, (S)-8-Ethynyl-N,N,4-trimethyl-6-(pyridin-2′-yl)-4H-benzo[f]imidazo[1,5-a][1,4]diazepine-3-carboxamide]","Ca channel human, PDSP raw data, mean",Ca channel human,4.19%
same,inhibition at 10 µM,5-HT3,-3.58%
same,inhibition at 10 µM,Alpha1B,11%
same,inhibition at 10 µM,M5,-11.8%
same,"Sigma 1, PDSP raw data, mean",Sigma 1,27.79%
same,inhibition at 10 µM,HCA2,20.8%
same,inhibition at 10 µM,Alpha3Beta2,3.57%
